From patent US20050002859A1, “COX-2-targeted imaging agents” (Vanderbilt University, priority 2003, published 2005)
Numbering of substitutions follows the chain as printed. Read-outs that look alike come from different tables or passages of the source. Each block holds one compound with its values, some of them ahead of it.

Columns and labels:
COX-2 [1] = target: T1, COX-2 (Homo sapiens, UniProt P35354); conditions: cited from earlier work
T1 sequence (P35354 18-604): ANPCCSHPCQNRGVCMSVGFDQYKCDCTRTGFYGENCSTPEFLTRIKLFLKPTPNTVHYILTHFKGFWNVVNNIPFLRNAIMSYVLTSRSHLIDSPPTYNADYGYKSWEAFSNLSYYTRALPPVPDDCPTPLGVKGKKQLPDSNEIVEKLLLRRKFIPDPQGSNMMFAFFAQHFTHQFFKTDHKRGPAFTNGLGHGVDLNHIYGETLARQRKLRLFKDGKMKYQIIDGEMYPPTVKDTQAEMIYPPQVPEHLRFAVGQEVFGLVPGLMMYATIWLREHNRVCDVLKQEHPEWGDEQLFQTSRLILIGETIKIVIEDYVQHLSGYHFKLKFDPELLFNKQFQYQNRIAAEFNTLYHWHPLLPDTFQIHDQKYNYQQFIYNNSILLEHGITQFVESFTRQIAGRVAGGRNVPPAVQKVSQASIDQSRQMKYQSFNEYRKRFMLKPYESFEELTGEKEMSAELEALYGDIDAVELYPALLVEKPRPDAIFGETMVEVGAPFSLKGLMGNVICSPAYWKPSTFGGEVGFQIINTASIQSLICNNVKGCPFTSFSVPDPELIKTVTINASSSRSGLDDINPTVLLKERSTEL

gastric lesions = conditions: rat, in vivo, 100 mg/kg
[2] = system: HCT-15 colon cancer cells; conditions: HCT-15 cells, do not express COX-2; cited from earlier work
S516A mutant of COX-2 = target: T2, S516A mutant of COX-2 (Homo sapiens, UniProt P35354, S516A); conditions: cited from earlier work
T2 sequence (P35354 18-604 S516A): T1 sequence (P35354 18-604) with S499A

[3] = system: PGE2 in pouch exudate (COX-2 activity); conditions: cited from earlier work
[4] = target: T3, COX-2 activity in RAW 264.7 murine macrophage cell line (Mus musculus, UniProt Q05769); conditions: LPS-activated RAW 264.7; exogenous arachidonic acid; read-out: IC50 for inhibition of PGD2 synthesis; cited from earlier work
T3 construct: The macrophages were exposed to lipopolysaccharide and γ-interferon to induce COX-2; endogenous in cells
T3 sequence (Q05769 18-604): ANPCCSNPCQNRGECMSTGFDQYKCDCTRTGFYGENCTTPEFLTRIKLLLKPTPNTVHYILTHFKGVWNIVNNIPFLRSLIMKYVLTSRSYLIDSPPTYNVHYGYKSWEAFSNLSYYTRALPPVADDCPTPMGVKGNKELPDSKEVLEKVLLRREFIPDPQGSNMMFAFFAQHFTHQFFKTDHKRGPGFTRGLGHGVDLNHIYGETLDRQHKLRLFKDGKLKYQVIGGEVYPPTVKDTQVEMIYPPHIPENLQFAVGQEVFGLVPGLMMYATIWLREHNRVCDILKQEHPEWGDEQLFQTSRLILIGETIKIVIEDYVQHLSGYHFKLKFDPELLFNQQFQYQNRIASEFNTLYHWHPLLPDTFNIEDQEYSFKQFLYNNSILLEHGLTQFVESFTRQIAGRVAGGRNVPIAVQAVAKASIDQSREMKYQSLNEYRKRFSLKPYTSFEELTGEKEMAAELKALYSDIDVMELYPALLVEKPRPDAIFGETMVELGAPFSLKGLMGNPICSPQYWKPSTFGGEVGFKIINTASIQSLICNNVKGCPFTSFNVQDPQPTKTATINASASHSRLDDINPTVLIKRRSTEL

[5] = system: serum thromboxane B2 (COX-1 activity); conditions: cited from earlier work
Sprague-Dawley rats = experiment: 14-day daily oral toxicity in Sprague-Dawley rats; type: in vivo; conditions: daily oral 100 mg/kg, at 14 days
[6] = system: rat carageenan footpad edema; experiment: Rat carageenan footpad edema model; type: in vivo
Method: The first is the rat carageenan footpad model. Maximal edema is obtained in this model 3 hours after carageenan injection.

HCA-7 colon cancer cells = conditions: HCA-7 cells, express high levels of COX-2; read-out: IC50 growth in soft agar; cited from earlier work
COX-1 [7] = target: T4, COX-1 (Ovis aries, UniProt P05979); experiment: Inhibition of COX-1 by NSAID derivatives (species not stated); type: biochemical
T4 sequence (P05979 25-600): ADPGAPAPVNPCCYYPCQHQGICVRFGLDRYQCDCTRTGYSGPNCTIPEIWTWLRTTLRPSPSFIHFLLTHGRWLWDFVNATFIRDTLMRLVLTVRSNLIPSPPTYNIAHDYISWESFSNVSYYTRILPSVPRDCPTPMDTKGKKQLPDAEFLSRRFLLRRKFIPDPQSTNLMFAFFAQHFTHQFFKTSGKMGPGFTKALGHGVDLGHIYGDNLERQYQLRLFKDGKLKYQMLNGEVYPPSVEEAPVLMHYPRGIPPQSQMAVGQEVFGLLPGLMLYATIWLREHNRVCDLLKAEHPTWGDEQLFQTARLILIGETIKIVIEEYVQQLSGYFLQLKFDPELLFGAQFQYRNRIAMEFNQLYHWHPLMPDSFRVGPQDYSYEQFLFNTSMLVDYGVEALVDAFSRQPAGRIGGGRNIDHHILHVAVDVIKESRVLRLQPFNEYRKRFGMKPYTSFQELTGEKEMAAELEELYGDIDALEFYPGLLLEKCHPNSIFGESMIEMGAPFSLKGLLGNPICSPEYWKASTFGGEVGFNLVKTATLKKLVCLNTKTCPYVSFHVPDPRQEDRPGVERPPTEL
Method: (§1) While the TLC assay described above provides considerable information, it is labor-intensive for screening large numbers of candidate NSAID derivatives. Accordingly, as an alternative, a simplified assay can be used. Incubation conditions can be essentially as described above, except all candidate derivatives are first screened at a concentration of 1 mM with a preincubation time of 30 minutes. The substrate need not be radiolabeled, and the reaction can be stopped by the addition of 2 μL of formic acid. Product formation can be quantitated by enzyme-linked immunosorbent assay (ELISA) using commercially available kits. […] Other in vitro assay methods for screening NSAID derivatives for activity (e.g., selectivity for the COX-2 enzyme) can also be used by the skilled artisan.

[8] = target: T3, COX-2 activity in RAW 264.7 murine macrophage cell line; experiment: Inhibition of COX-2 activity (PGD2 synthesis) in activated RAW264.7 macrophages; type: cell-based
Description: Thus, NSAID derivatives that are identified as potentially useful in the methods described herein can be further tested using, for example, the RAW264.7 murine macrophage cell line. These cells are readily available (for example, from the American Type Culture Collection, Manassas, Va., United States of America) and are easily cultured in large numbers. They normally express low levels of COX-1 and very low to undetectable levels of COX-2. Upon exposure to bacterial lipopolysaccharide (LPS), however, COX-2 levels increase dramatically over the ensuing 24 hour period, and the cells produce PGD2 and PGE2 from endogenous arachidonic acid stores (generally, ˜1 nmol/10^7 cells total PG formation). After LPS exposure, the addition of exogenous arachidonic acid results in the formation of additional PGD2 and PGE2 as a result of metabolism by the newly synthesized COX-2.
This system provides a number of approaches for testing the inhibitory potency of COX-2-selective ligands (e.g., inhibitors). In general, following LPS activation, cells can be treated for 30 minutes with the desired concentrations of candidate derivative(s) in DMSO. ^14C-arachidonic acid can be added, and the cells can be incubated for 15 minutes at 37° C. Product formation can be assessed following extraction and TLC separation of the culture medium. Alternatively, the effects of candidate derivatives on PG synthesis from endogenous arachidonic acid can be assessed by incubating cells with desired concentrations of candidate derivatives 30 minutes prior to LPS exposure. Following a 24 hour incubation, medium can be collected and extracted, and the amount of PGD2 and/or PGE2 can be assayed by gas chromatography-mass spectrometry, liquid chromatography-mass spectrometry, or ELISA.
Inhibition of COX-2 Activity in Activated RAW264.7. Protocols for COX-2 inhibition in RAW264.7 cells have been previously described (Kalgutkar et al., 1998b). Briefly, cells (6.2×10^6 cells/T25 flask) were activated with lipopolysaccharide (1 μg/mL) and γ-interferon (10 U/mL) in serum-free DMEM for 7 hours and then treated with inhibitor (0-2 μM) for 30 minutes at 37° C. Exogenous arachidonate metabolism was determined by adding [1-^14C]-arachidonate acid (20 μM) for 15 minutes at 37° C. IC50 values are the average of two independent determinations.
The macrophages were exposed to lipopolysaccharide and γ-interferon to induce COX-2 and then treated with several concentrations of Compound 355.

COX-2 [9] = target: T1, COX-2; experiment: Inhibition of purified COX-2 by NSAID derivatives (species not stated); type: biochemical; conditions: purified COX-2
Method: as §1

COX-2 [10] = target: T1, COX-2; experiment: biochemical
Method: (§2) One example of an in vitro screening method takes advantage of the fact that both human and murine recombinant COX-2 can be expressed and isolated in pure form from an Sf-9 cell expression system. Briefly, typical assays involve the incubation of COX-1 (44 nM) or COX-2 (66 nM) in a 200 μL reaction mixture containing 100 mM Tris-HCl, pH 8.0, 500 μM phenol and 50 μM ^14C-arachidonic acid (55 mCi/mmol) for 30 seconds at 37° C. […] The reaction is stopped by the addition of 200 μL of ethanol/methanol/1 M citrate, pH 4.0 (30:4:1). The extracted products are separated by thin layer chromatography (TLC), which allows quantitation of total product formation as well as assessment of product distribution. This assay is useful to define IC50 values for inhibition of either enzyme, and to determine time-dependency of inhibition. It also provides information concerning changes in products formed as a result of inhibition.
(§3) Apoenzyme was reconstituted by the addition of hematin to the assay mixtures. Human COX-2 was expressed in Sf9 insect cells by means of the pVL 1393 expression vector (BD Biosciences Pharmingen, San Diego, Calif., United States of America) and purified by ion exchange and gel filtration chromatography. […]
(§4) IC50 values for the inhibition of purified human COX-2 or ovine COX-1 by test compounds were determined by thin layer chromatography (TLC) radiography. […]

ovine COX-1 = target: T5, ovine COX-1 (Ovis aries, UniProt P05979); experiment: Inhibition of purified ovine COX-1, TLC assay
T5 sequence (P05979 25-600): T4 sequence (P05979 25-600)
Method: as §2, §3, §4

COX-1 [11] = target: T4, COX-1; conditions: cited from earlier work
[12] = Rattus norvegicus, po, maximal edema 3 hours after carageenan injection, read-out: ED50 inhibition of edema formation
[13] = activated RAW 264.7 cells, read-out: IC50 for inhibition of PGD2 synthesis/production

SMILES: CCCCC#CCSc1ccccc1OC(C)=O [APHS, o-(acetoxyphenyl)hept-2-ynyl sulfide]
- selectivity for COX-2 relative to aspirin (COX-2 [1]): 100 times
- time to complete inactivation of COX-2 (COX-2 [1]): ≤ 30 min
- kinact/Ki (COX-2 [1]; irreversible inactivation of COX-2): ~3000 M⁻¹ s⁻¹
- gastric toxicity (gastric lesions): no gastric toxicity
- effect on growth [2]: no effect
- inhibitory effect on S516A mutant of COX-2 (S516A mutant of COX-2): resistant
- reduction of PGE2 levels in pouch exudate ([3]; dose of 5 mg/kg): 95%
- reduction of pouch PGE2 levels ([3]; dose of 50 mg/kg): 100%
- IC50 [4]: 0.12 µM
- effect on serum TXB2 levels ([5]; dose of 5 mg/kg): no effect
- reduction of serum TXB2 levels ([5]; dose of 50 mg/kg): 11%
- toxicities by gross or histopathological evaluation (Sprague-Dawley rats): no detectable toxicities
- ED50 [6, 12]: 6 mg/kg
- IC50 (HCA-7 colon cancer cells): 2 µM

SMILES: CC(=O)Oc1ccccc1C(=O)O [aspirin]
- potency against COX-1 relative to COX-2 (COX-1 [11]): 10-100 times
- ED50 [6, 12]: 125 mg/kg

SMILES: COc1ccc2c(c1)c(CC(=O)O)c(C)n2C(=O)c1ccc(Cl)cc1 [indomethacin]
- reduction of PGE2 levels ([3]; 2 mg/kg dose): 100%
- reduction of TXB2 levels ([5]; 2 mg/kg dose): 90%
- ED50 ([6]; rat carageenan footpad model (Example 14), read-out: ED50): 2 mg/kg

SMILES: CSc1ccccc1OC(C)=O [o-(Acetoxyphenyl)methyl sulfide]
- inhibitory potency and selectivity for COX-2 (COX-2 [1]): moderate

Second part, the compound after the results:

- IC50 (COX-1 [7]): > 50 µM
- IC50 ([8]; read-out: IC50 for inhibition of COX-2 activity in RAW 264.7 macrophages): 3.5 µM
- IC50 (COX-2 [9]): 0.05 µM
SMILES: COc1ccc2c(c1)c(CC(=O)NCCOC(=O)c1cc(I)cc(I)c1I)c(C)n2C(=O)c1ccc(Cl)cc1 [Compound 5]

- IC50 (COX-1 [7]): > 65 µM
- IC50 [8, 13]: 0.2 µM
- IC50 (COX-2 [9]): 0.08 µM
SMILES: O=C(c1ccccc1)c1ccc2n1CCC2C(=O)NCc1ccc(F)cc1 (stereo not shown) [Compound 19, p-fluorobenzyl derivative of ketorolac amide]

- IC50 [8, 13]: 0.5 µM
- IC50 (COX-2 [10]): 0.103 µM
- IC50 (ovine COX-1): > 60 µM
SMILES: COc1ccc2c(c1)c(CC(=O)NCCNC(=O)c1ccc(F)cc1)c(C)n2C(=O)c1ccc(Cl)cc1 [Compound 355, N-(2-{2-[1-(4-Chloro-benzoyl)-5-methoxy-2-methyl-1H-indol-3-yl]-acetylamino}-ethyl)-4-fluoro-benzamide]

- IC50 (COX-2 [10]): 0.1 µM
- IC50 (ovine COX-1): > 60 µM
SMILES: COc1ccc2c(c1)c(CC(=O)Nc1ccc(F)cc1)c(C)n2C(=O)c1ccc(Cl)cc1F [Compound 360, 2-[1-(4-Chloro-2-fluoro-benzoyl)-5-methoxy-2-methyl-1H-indol-3-yl]-N-(4-fluoro-phenyl)-acetamide]
